Measured values taken from ChEMBL document CHEMBL6109070, “Fatty acid conjugated BimBH3 analogues with d‑amino acid substitution as PTPN1 inhibitors with enhanced activity, biostability and orally available potency for the treatment of diabetes” (Bioorg Med Chem, 2025).
pIC50, pKd: −log10 of the molar value.

Key:
[1] = target: T1, Tyrosine-protein phosphatase non-receptor type 1 (Homo sapiens, UniProt P18031); assay: Inhibition of recombinant human PTPN1 using p-nitrophenyl phosphate as substrate by spectrophotometric analysis
T1 sequence (P18031 whole entry): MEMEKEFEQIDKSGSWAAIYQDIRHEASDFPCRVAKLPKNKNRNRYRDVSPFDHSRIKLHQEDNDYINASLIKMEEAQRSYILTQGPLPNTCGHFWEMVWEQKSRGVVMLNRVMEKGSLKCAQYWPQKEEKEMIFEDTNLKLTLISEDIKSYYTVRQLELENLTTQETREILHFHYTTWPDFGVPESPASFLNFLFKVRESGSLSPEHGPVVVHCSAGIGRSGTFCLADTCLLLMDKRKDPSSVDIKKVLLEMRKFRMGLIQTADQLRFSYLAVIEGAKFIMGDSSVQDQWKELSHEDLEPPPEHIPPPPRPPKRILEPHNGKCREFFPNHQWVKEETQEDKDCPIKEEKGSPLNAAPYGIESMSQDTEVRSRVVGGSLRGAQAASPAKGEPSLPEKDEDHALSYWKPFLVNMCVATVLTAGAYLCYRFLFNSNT

[2] = target: DPP-4 (dipeptidyl peptidase 4) (Homo sapiens, UniProt P27487); assay: Stability of compound assessed as DPP-4 (unknown origin)-mediated drug degradation by measuring half life measured for 10 mins by RP-HPLC analysis; format: ADME
[3] = target: T1, Tyrosine-protein phosphatase non-receptor type 1; assay: Binding affinity to PTPN1 (unknown origin) assessed as equilibrium dissociation constant (Kd) by Bio-Layer Interferometric analysis
[4] = target: T2, Tyrosine-protein phosphatase non-receptor type 1 (Homo sapiens) (UniProt P18031); assay: Binding affinity to PTPN1 (unknown origin) assessed as association rate constant (Kon) by Bio-Layer Interferometric analysis
T2 sequence (whole entry): T1 sequence (P18031 whole entry)

[5] = target: T2, Tyrosine-protein phosphatase non-receptor type 1 (Homo sapiens); assay: Binding affinity to PTPN1 (unknown origin) assessed as observed […] rate constant (Kobs) by Bio-Layer Interferometric analysis
chymotrypsin = assay: Proteolytic stability of compound assessed as chymotrypsin (unknown origin)-mediated drug degradation at 0.6 mM by measuring half life measured after 24 hrs by RP-HPLC analysis; format: ADME; conditions: human
[6] = Stability in rat plasma assessed as half life; format: ADME, cell-free
proteinase K = assay: Proteolytic stability of compound assessed as proteinase K (unknown origin)-mediated drug degradation at 0.4 mM by measuring half life measured after 24 hrs by RP-HPLC analysis; format: ADME; conditions: human
pepsin = assay: Proteolytic stability of compound assessed as pepsin (unknown origin)-mediated drug degradation at 40 mM by measuring half life measured after 24 hrs by RP-HPLC analysis; format: ADME; conditions: human
[7] = target: T2, Tyrosine-protein phosphatase non-receptor type 1 (Homo sapiens); assay: Binding affinity to PTPN1 (unknown origin) assessed as dissociation rate constant (Koff) by Bio-Layer Interferometric analysis
[8] = Toxicity in male Kunming mouse assessed as reduction in body weight at 0.2 microM/Kg, sc administered daily for 7 days and measured on day 1; format: organism-based; conditions: in vivo, 24 h, time 1 day
Mus musculus [9] = assay: Anti-diabetic activity in male Kunming mouse assessed as reduction in area under the curve of blood glucose at 10 mg/kg, po measured for 0 to 180 mins by GTT; format: functional; design: scale not given: the % may be the effect or the level left; conditions: time 0-180 min
Mus musculus [10] = assay: Anti-diabetic activity in male Kunming mouse assessed as reduction in area under the curve of blood glucose at 0.05 microM/Kg, sc measured for 0 to 120 mins by GTT; format: functional; design: scale not given: the % may be the effect or the level left; conditions: time 0-120 min, at 0.05 µmol/kg
Mus musculus [11] = assay: Anti-diabetic activity in male Kunming mouse assessed as reduction in area under the curve of blood glucose at 20 mg/kg, po measured for 0 to 180 mins by GTT; format: functional; design: scale not given: the % may be the effect or the level left; conditions: time 0-180 min
Mus musculus [12] = assay: Anti-diabetic activity in male Kunming mouse assessed as reduction in area under the curve of blood glucose at 0.1 microM/Kg, sc measured for 0 to 120 mins by GTT; format: functional; design: scale not given: the % may be the effect or the level left; conditions: time 0-120 min, at 0.1 µmol/kg
Mus musculus [13] = assay: Anti-diabetic activity in male Kunming mouse assessed as reduction in area under the curve of blood glucose at 0.2 microM/Kg, sc measured for 0 to 120 mins by GTT; format: functional; design: scale not given: the % may be the effect or the level left; conditions: time 0-120 min, at 0.2 µmol/kg
[14] = Toxicity in male Kunming mouse assessed as change in body weight at 0.2 microM/Kg, sc administered daily for 7 days and measured from day 2 to 7; format: organism-based; conditions: in vivo, 144 h, time 6 day
Mus musculus [15] = assay: Anti-diabetic activity in male Kunming mouse assessed as reduction in area under the curve of blood glucose at 40 mg/kg, po measured for 0 to 180 mins by GTT; format: functional; design: scale not given: the % may be the effect or the level left; conditions: time 0-180 min

DPP-4 (dipeptidyl peptidase 4), sequence (P27487 whole entry): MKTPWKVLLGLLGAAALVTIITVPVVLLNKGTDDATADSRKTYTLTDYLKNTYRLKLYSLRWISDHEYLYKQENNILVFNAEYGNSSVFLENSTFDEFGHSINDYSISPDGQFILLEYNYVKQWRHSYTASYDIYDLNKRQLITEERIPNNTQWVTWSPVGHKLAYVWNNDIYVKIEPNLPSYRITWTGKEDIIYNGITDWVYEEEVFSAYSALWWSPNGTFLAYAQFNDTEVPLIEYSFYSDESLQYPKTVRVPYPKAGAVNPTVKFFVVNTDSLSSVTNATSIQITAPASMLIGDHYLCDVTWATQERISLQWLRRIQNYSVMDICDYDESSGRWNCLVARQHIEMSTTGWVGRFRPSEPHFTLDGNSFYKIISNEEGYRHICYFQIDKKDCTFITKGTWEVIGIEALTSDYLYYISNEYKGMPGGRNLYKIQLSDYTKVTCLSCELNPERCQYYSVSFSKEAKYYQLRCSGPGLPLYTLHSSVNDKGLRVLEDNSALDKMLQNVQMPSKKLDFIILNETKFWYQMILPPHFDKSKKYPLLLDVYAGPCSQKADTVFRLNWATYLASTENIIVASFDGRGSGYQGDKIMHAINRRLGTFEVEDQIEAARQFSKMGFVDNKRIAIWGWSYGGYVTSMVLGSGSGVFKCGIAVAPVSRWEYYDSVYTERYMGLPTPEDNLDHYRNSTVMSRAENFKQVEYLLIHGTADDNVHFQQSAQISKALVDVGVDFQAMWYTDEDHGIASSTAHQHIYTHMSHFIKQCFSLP

Structure (SMILES)	pIC50 [1]	half-life [2]	pKd [3]	K [4]	Kobs [5]	half-life at 600 µM (chymotrypsin)	half-life [6]	half-life at 400 µM (proteinase K)	half-life at 40000 µM (pepsin)	K [7]	Activity [8]	Activity (Mus musculus [9])	Activity (Mus musculus [10])	Activity (Mus musculus [11])	Activity (Mus musculus [12])	Activity (Mus musculus [13])	Activity [14]	Activity (Mus musculus [15])
CCCCCCCCCCCCCCCC(=O)N[C@H](C(=O)N[C@H](CCC(N)=O)C(=O)N[C@@H](CCC(N)=O)C(=O)N[C@@H](CCC(=O)O)C(=O)N[C@@H](CC(C)C)C(=O)N[C@@H](CCCNC(=N)N)C(=O)N[C@@H](CCCNC(=N)N)C(=O)N[C@H](C(=O)NCC(=O)N[C@@H](CC(=O)O)C(=O)N[C@@H](CCC(=O)O)C(=O)N[C@@H](Cc1ccccc1)C(=O)O)[C@@H](C)CC)[C@@H](C)CC	5.38																	
CCCCCCCCCCCCCCCC(=O)N[C@H](C(=O)N[C@H](Cc1ccc(O)cc1)C(=O)N[C@@H](CCC(N)=O)C(=O)N[C@@H](CCC(=O)O)C(=O)N[C@@H](CC(C)C)C(=O)N[C@@H](CCCNC(=N)N)C(=O)N[C@@H](CCCNC(=N)N)C(=O)N[C@H](C(=O)NCC(=O)N[C@@H](CC(=O)O)C(=O)N[C@@H](CCC(=O)O)C(=O)N[C@@H](Cc1ccccc1)C(=O)O)[C@@H](C)CC)[C@@H](C)CC	6.34	13.6 h	6.35	4.4 10^2/Ms	8.87 10^-3No_unit	0.115 h	98.6 h	8.66 h	1.78 h	7.35 10^-5/s								
CCCCCCCCCCCCCCCC(=O)N[C@H](C(=O)N[C@@H](C)C(=O)N[C@H](CCC(N)=O)C(=O)N[C@@H](CCC(=O)O)C(=O)N[C@@H](CC(C)C)C(=O)N[C@@H](CCCNC(=N)N)C(=O)N[C@@H](CCCNC(=N)N)C(=O)N[C@H](C(=O)NCC(=O)N[C@@H](CC(=O)O)C(=O)N[C@@H](CCC(=O)O)C(=O)N[C@@H](Cc1ccccc1)C(=O)O)[C@@H](C)CC)[C@@H](C)CC	6.07	1.42 h				1.86 h		3.21 h	1.13 h									
CCCCCCCCCCCCCCCC(=O)N[C@H](C(=O)N[C@H](CO)C(=O)N[C@@H](CCC(N)=O)C(=O)N[C@@H](CCC(=O)O)C(=O)N[C@@H](CC(C)C)C(=O)N[C@@H](CCCNC(=N)N)C(=O)N[C@@H](CCCNC(=N)N)C(=O)N[C@H](C(=O)NCC(=O)N[C@@H](CC(=O)O)C(=O)N[C@@H](CCC(=O)O)C(=O)N[C@@H](Cc1ccccc1)C(=O)O)[C@@H](C)CC)[C@@H](C)CC	5.36																	
CCCCCCCCCCCCCCCC(=O)N[C@H](C(=O)N[C@@H](C)C(=O)N[C@@H](CCC(N)=O)C(=O)N[C@@H](CCC(=O)O)C(=O)N[C@@H](CC(C)C)C(=O)N[C@@H](CCCNC(=N)N)C(=O)N[C@@H](CCCNC(=N)N)C(=O)N[C@@H](C(=O)NCC(=O)N[C@@H](CC(=O)O)C(=O)N[C@@H](CCC(=O)O)C(=O)N[C@@H](Cc1ccccc1)C(=O)O)[C@@H](C)CC)[C@@H](C)CC	6.53	2.87 h	7.82	1.65 10^3/Ms	3.31 10^-2No_unit	0.712 h	101 h	8.87 h	1.42 h	2.5 10^-5/s	~ 1 g	4.6%	7.1%	8%	15.6%	26.2%	Non-toxic	15.4%
CCCCCCCCCCCCCCCC(=O)N[C@H](C(=O)N[C@@H](C(=O)N[C@@H](CCC(N)=O)C(=O)N[C@@H](CCC(=O)O)C(=O)N[C@@H](CC(C)C)C(=O)N[C@@H](CCCNC(=N)N)C(=O)N[C@@H](CCCNC(=N)N)C(=O)N[C@H](C(=O)NCC(=O)N[C@@H](CC(=O)O)C(=O)N[C@@H](CCC(=O)O)C(=O)N[C@@H](Cc1ccccc1)C(=O)O)[C@@H](C)CC)C(C)C)[C@@H](C)CC	6.09	7.12 h	5.68	2.78 10^2/Ms	6.14 10^-3No_unit	0.163 h	70.7 h	12.3 h	1.17 h	5.85 10^-3/s								
CCCCCCCCCCCCCCCC(=O)N[C@H](C(=O)N[C@H](C)C(=O)N[C@@H](CCC(N)=O)C(=O)N[C@@H](CCC(=O)O)C(=O)N[C@@H](CC(C)C)C(=O)N[C@@H](CCCNC(=N)N)C(=O)N[C@@H](CCCNC(=N)N)C(=O)N[C@H](C(=O)NCC(=O)N[C@@H](CC(=O)O)C(=O)N[C@@H](CCC(=O)O)C(=O)N[C@@H](Cc1ccccc1)C(=O)O)[C@@H](C)CC)[C@@H](C)CC	6.40	3.61 h	6.78	3.27 10^2/Ms	6.69 10^-3No_unit	1.72 h	102 h	15 h	2.42 h	1.46 10^-4/s								
CCCCCCCCCCCCCCCC(=O)N[C@H](C(=O)N[C@@H](C)C(=O)N[C@@H](CCC(N)=O)C(=O)N[C@@H](CCC(=O)O)C(=O)N[C@@H](CC(C)C)C(=O)N[C@@H](CCCNC(=N)N)C(=O)N[C@H](CCCNC(=N)N)C(=O)N[C@H](C(=O)NCC(=O)N[C@@H](CC(=O)O)C(=O)N[C@@H](CCC(=O)O)C(=O)N[C@@H](Cc1ccccc1)C(=O)O)[C@@H](C)CC)[C@@H](C)CC	5.78																	
CCCCCCCCCCCCCCCC(=O)N[C@H](C(=O)N[C@H](Cc1cnc[nH]1)C(=O)N[C@@H](CCC(N)=O)C(=O)N[C@@H](CCC(=O)O)C(=O)N[C@@H](CC(C)C)C(=O)N[C@@H](CCCNC(=N)N)C(=O)N[C@@H](CCCNC(=N)N)C(=O)N[C@H](C(=O)NCC(=O)N[C@@H](CC(=O)O)C(=O)N[C@@H](CCC(=O)O)C(=O)N[C@@H](Cc1ccccc1)C(=O)O)[C@@H](C)CC)[C@@H](C)CC	6.06					2.9 h		3.79 h	1.14 h									
CCCCCCCCCCCCCCCC(=O)N[C@H](C(=O)N[C@@H](C)C(=O)N[C@@H](CCC(N)=O)C(=O)N[C@@H](CCC(=O)O)C(=O)N[C@@H](CC(C)C)C(=O)N[C@@H](CCCNC(=N)N)C(=O)N[C@@H](CCCNC(=N)N)C(=O)N[C@H](C(=O)NCC(=O)N[C@@H](CC(=O)O)C(=O)N[C@@H](CCC(=O)O)C(=O)N[C@@H](Cc1ccccc1)C(=O)O)[C@@H](C)CC)[C@@H](C)CC		3.68 h	5.55	2.35 10^2/Ms	7.3 10^-3No_unit	0.556 h	10.6 h	2.65 h	2.7 h	6.65 10^-3/s								
CCCCCCCCCCCCCCCC(=O)N[C@H](C(=O)N[C@H](CCCCN)C(=O)N[C@@H](CCC(N)=O)C(=O)N[C@@H](CCC(=O)O)C(=O)N[C@@H](CC(C)C)C(=O)N[C@@H](CCCNC(=N)N)C(=O)N[C@@H](CCCNC(=N)N)C(=O)N[C@H](C(=O)NCC(=O)N[C@@H](CC(=O)O)C(=O)N[C@@H](CCC(=O)O)C(=O)N[C@@H](Cc1ccccc1)C(=O)O)[C@@H](C)CC)[C@@H](C)CC	5.67																	
